# Test results from patent publication US4824955A, “Selenium oxy chloride-pyridine or bipyridine complexes” (Nippon Kayaku Kabushiki Kaisha, priority 1985, dated 1989).
# Tested on: Enrlich carcinoma
# Assay: Antineoplastic activity against Enrlich carcinoma (life prolongation rate)
# Format: in vivo, 5-week-old ICR mice (male)
# Set-up: response vs control in vivo: dose or concentration left out as unconfirmed
# Details: Mus musculus, ip, 1440 h, 1.0 mg/kg/day, intraperitoneal, once a day, 7 days; read-out: Life prolongation rate (T/C %)
# Description: Approximately 10^6 cells/0.2 ml of Enrlich carcinoma were inoculated into the abdominal cavity of each of the 5-week-old ICR mice (male) used for the test, and the test compounds were administered intraperitoneally to the mice of the treated group once a day for a period of 7 days, starting from the day after said inoculation. The mice of the control group was administered with a saline solution in the same way. Observation of the animals of both groups was continued for 60 days after the administration, and the life prolongation rate (T/C%, T/C×100) was determined from the average duration (days) of life of the mice of the treated group (T) and that of the mice of the control group (C).
row,SMILES,response vs control in vivo at 1 mg/kg [%]
1,"CCC1CO[Se](=O)O1 (stereo not drawn) [Compound 3-8, 1,2-butanediolselenite]",208
2,"CCC(Cl)CO[Se](=O)OCC(Cl)CC (stereo not drawn) [Compound 3-3, Di-(2-chlorobutyl)selenite]",172

# Same assay, conditions: Mus musculus, ip, 1440 h, 2.0 mg/kg/day, intraperitoneal, 7 days, solvent used: DMSO; read-out: Life prolongation rate (T/C %)
row,SMILES,response vs control in vivo at 2 mg/kg [%]
1,"N#Cc1cccnc1 [Compound 2-7, Tetrachloroselenium-3-cyanopyridine (1:2) complex]",201

# Same assay, conditions: Mus musculus, ip, 1440 h, 2.0 mg/kg/day, intraperitoneal, once a day, 7 days; read-out: Life prolongation rate (T/C %)
row,SMILES,response vs control in vivo at 2 mg/kg [%]
1,"CCC1(CC)CO[Se](=O)OC1 [Compound 3-9, 2,2-diethyl-1,3-propanediolselenite]",152
2,O=[Se](OCC(Cl)c1ccccc1)OCC(Cl)c1ccccc1 (stereo not drawn) [Compound 3-5],154
3,"CCC1CO[Se](=O)O1 (stereo not drawn) [Compound 3-8, 1,2-butanediolselenite]",250
4,"c1ccc(-c2ccncc2)cc1 [Compound 1-11, Selenium oxychloride-4-phenylpyridine (1:2) complex]",166
5,"CCCCCCC(Cl)CO[Se](=O)OCC(Cl)CCCCCC (stereo not drawn) [Compound 3-4, Di-(2-chlorooctyl)selenite]",156
6,"Clc1cncc(Cl)c1 [Compound 1-15, Selenium oxychloride-3,5-dichlorpyridine (1:2) complex]",154
7,"Cn1c(=O)c2c(ncn2Cc2ccccc2)n(C)c1=O [Compound 1-33, Selenium oxychloride-N--benzyltheophylline (1:2) complex]",138
8,"O=[Se](OC1C2CCC(C2)C1Cl)OC1C2CCC(C2)C1Cl (stereo not drawn) [Compound 3-7, Di-(3-chloronorbonyl-2-il)selenite]",143
9,"O=P(c1ccccc1)(c1ccccc1)c1ccccc1 [Compound 1-36, Selenium oxycloride-triphenylphosphine oxide (1:2) complex]",155
10,"Brc1cccnc1 [Compound 1-14, Selenium oxychloride-3-bromopyridine (1:2) complex]",163
11,"CCC(Cl)CO[Se](=O)OCC(Cl)CC (stereo not drawn) [Compound 3-3, Di-(2-chlorobutyl)selenite]",205

# Same assay, conditions: Mus musculus, ip, 1440 h, 8.0 mg/kg/day, intraperitoneal, 7 days, solvent used: DMSO; read-out: Life prolongation rate (T/C %)
row,SMILES,response vs control in vivo at 8 mg/kg [%]
1,"N#Cc1cccnc1 [Compound 2-7, Tetrachloroselenium-3-cyanopyridine (1:2) complex]",214

# Same assay, conditions: Mus musculus, ip, 1440 h, 8.0 mg/kg/day, intraperitoneal, once a day, 7 days; read-out: Life prolongation rate (T/C %)
row,SMILES,response vs control in vivo at 8 mg/kg [%]
1,"CCC1(CC)CO[Se](=O)OC1 [Compound 3-9, 2,2-diethyl-1,3-propanediolselenite]",223
2,O=[Se](OCC(Cl)c1ccccc1)OCC(Cl)c1ccccc1 (stereo not drawn) [Compound 3-5],223
3,"CCC1CO[Se](=O)O1 (stereo not drawn) [Compound 3-8, 1,2-butanediolselenite]",212
4,"c1ccc(-c2ccncc2)cc1 [Compound 1-11, Selenium oxychloride-4-phenylpyridine (1:2) complex]",230
5,"CCCCCCC(Cl)CO[Se](=O)OCC(Cl)CCCCCC (stereo not drawn) [Compound 3-4, Di-(2-chlorooctyl)selenite]",180
6,"Clc1cncc(Cl)c1 [Compound 1-15, Selenium oxychloride-3,5-dichlorpyridine (1:2) complex]",191
7,"Cn1c(=O)c2c(ncn2Cc2ccccc2)n(C)c1=O [Compound 1-33, Selenium oxychloride-N--benzyltheophylline (1:2) complex]",214
8,"O=[Se](OC1C2CCC(C2)C1Cl)OC1C2CCC(C2)C1Cl (stereo not drawn) [Compound 3-7, Di-(3-chloronorbonyl-2-il)selenite]",201
9,"Brc1cccnc1 [Compound 1-14, Selenium oxychloride-3-bromopyridine (1:2) complex]",202
10,"CCC(Cl)CO[Se](=O)OCC(Cl)CC (stereo not drawn) [Compound 3-3, Di-(2-chlorobutyl)selenite]",212

# Same assay, conditions: Mus musculus, ip, 1440 h, […], intraperitoneal, 7 days, solvent used: DMSO; read-out: Life prolongation rate (T/C %)
row,SMILES,response vs control in vivo at 16 mg/kg [%]
1,"N#Cc1cccnc1 [Compound 2-7, Tetrachloroselenium-3-cyanopyridine (1:2) complex]",67

# Same assay, conditions: Mus musculus, ip, 1440 h, […], intraperitoneal, (Note 1) administered for 4 days; read-out: Life prolongation rate (T/C %)
row,SMILES,response vs control in vivo at 16 mg/kg [%]
1,"CCCCCCC(Cl)CO[Se](=O)OCC(Cl)CCCCCC (stereo not drawn) [Compound 3-4, Di-(2-chlorooctyl)selenite]",53
2,"Clc1cncc(Cl)c1 [Compound 1-15, Selenium oxychloride-3,5-dichlorpyridine (1:2) complex]",162
3,"O=[Se](OC1C2CCC(C2)C1Cl)OC1C2CCC(C2)C1Cl (stereo not drawn) [Compound 3-7, Di-(3-chloronorbonyl-2-il)selenite]",119
4,"Brc1cccnc1 [Compound 1-14, Selenium oxychloride-3-bromopyridine (1:2) complex]",147

# Same assay, conditions: Mus musculus, ip, 1440 h, […], intraperitoneal, (Note 5) administered for 6 days; read-out: Life prolongation rate (T/C %)
row,SMILES,response vs control in vivo at 16 mg/kg [%]
1,O=[Se](OCC(Cl)c1ccccc1)OCC(Cl)c1ccccc1 (stereo not drawn) [Compound 3-5],167

# Same assay, conditions: Mus musculus, ip, 1440 h, […], intraperitoneal, once a day, 7 days; read-out: Life prolongation rate (T/C %)
row,SMILES,response vs control in vivo at 16 mg/kg [%]
1,"CCC1(CC)CO[Se](=O)OC1 [Compound 3-9, 2,2-diethyl-1,3-propanediolselenite]",194
2,"c1ccc(-c2ccncc2)cc1 [Compound 1-11, Selenium oxychloride-4-phenylpyridine (1:2) complex]",221
3,"Cn1c(=O)c2c(ncn2Cc2ccccc2)n(C)c1=O [Compound 1-33, Selenium oxychloride-N--benzyltheophylline (1:2) complex]",205
4,"O=P(c1ccccc1)(c1ccccc1)c1ccccc1 [Compound 1-36, Selenium oxycloride-triphenylphosphine oxide (1:2) complex]",197

# Same assay, conditions: Mus musculus, ip, 1440 h, intraperitoneal, 7 days, solvent used: DMSO; read-out: Life prolongation rate (T/C %)
row,SMILES,response vs control in vivo [%]
1,"N#Cc1cccnc1 [Compound 2-7, Tetrachloroselenium-3-cyanopyridine (1:2) complex]",243

# Same assay, conditions: Mus musculus, ip, 1440 h, intraperitoneal, once a day, 7 days; read-out: Life prolongation rate (T/C %)
row,SMILES,response vs control in vivo [%]
1,"CCC1(CC)CO[Se](=O)OC1 [Compound 3-9, 2,2-diethyl-1,3-propanediolselenite]",204
2,O=[Se](OCC(Cl)c1ccccc1)OCC(Cl)c1ccccc1 (stereo not drawn) [Compound 3-5],194
3,"CCC1CO[Se](=O)O1 (stereo not drawn) [Compound 3-8, 1,2-butanediolselenite]",194
4,"CCCCCCC(Cl)CO[Se](=O)OCC(Cl)CCCCCC (stereo not drawn) [Compound 3-4, Di-(2-chlorooctyl)selenite]",208
5,"Clc1cncc(Cl)c1 [Compound 1-15, Selenium oxychloride-3,5-dichlorpyridine (1:2) complex]",174
6,"O=[Se](OC1C2CCC(C2)C1Cl)OC1C2CCC(C2)C1Cl (stereo not drawn) [Compound 3-7, Di-(3-chloronorbonyl-2-il)selenite]",148
7,"O=P(c1ccccc1)(c1ccccc1)c1ccccc1 [Compound 1-36, Selenium oxycloride-triphenylphosphine oxide (1:2) complex]",186
8,"Brc1cccnc1 [Compound 1-14, Selenium oxychloride-3-bromopyridine (1:2) complex]",179
9,"CCC(Cl)CO[Se](=O)OCC(Cl)CC (stereo not drawn) [Compound 3-3, Di-(2-chlorobutyl)selenite]",230

# Tested on: not listed separately
# Assay: in vivo
# Details: mouse, ip, LD50, intraperitoneal, once a day, 7 days, mice
row,SMILES,LD50 [mg/kg]
1,"N#Cc1cccnc1 [Compound 2-7, Tetrachloroselenium-3-cyanopyridine (1:2) complex]",8 to 16
2,"CCC1(CC)CO[Se](=O)OC1 [Compound 3-9, 2,2-diethyl-1,3-propanediolselenite]",> 16
3,O=[Se](OCC(Cl)c1ccccc1)OCC(Cl)c1ccccc1 (stereo not drawn) [Compound 3-5],> 16
4,"CCC1CO[Se](=O)O1 (stereo not drawn) [Compound 3-8, 1,2-butanediolselenite]",> 8
5,"c1ccc(-c2ccncc2)cc1 [Compound 1-11, Selenium oxychloride-4-phenylpyridine (1:2) complex]",> 16
6,"CCCCCCC(Cl)CO[Se](=O)OCC(Cl)CCCCCC (stereo not drawn) [Compound 3-4, Di-(2-chlorooctyl)selenite]",8 to 16
7,"Clc1cncc(Cl)c1 [Compound 1-15, Selenium oxychloride-3,5-dichlorpyridine (1:2) complex]",8 to 16
8,"Cn1c(=O)c2c(ncn2Cc2ccccc2)n(C)c1=O [Compound 1-33, Selenium oxychloride-N--benzyltheophylline (1:2) complex]",> 16
9,"O=[Se](OC1C2CCC(C2)C1Cl)OC1C2CCC(C2)C1Cl (stereo not drawn) [Compound 3-7, Di-(3-chloronorbonyl-2-il)selenite]",8 to 16
10,"O=P(c1ccccc1)(c1ccccc1)c1ccccc1 [Compound 1-36, Selenium oxycloride-triphenylphosphine oxide (1:2) complex]",> 16
11,"Brc1cccnc1 [Compound 1-14, Selenium oxychloride-3-bromopyridine (1:2) complex]",8 to 16
12,"CCC(Cl)CO[Se](=O)OCC(Cl)CC (stereo not drawn) [Compound 3-3, Di-(2-chlorobutyl)selenite]",> 8
